Source: patent US11945822B2, “Pyrazolo-triazine and/or pyrazolo-pxrimidine derivatives as selective inhibitor of cyclin dependent kinase” (QURIENT CO., LTD., priority 2018, dated 2024)

How the values were obtained:
H460 = experiment: Cellular H460 viability assay (CellTiter-Glo, 72 hours); type: cell-based; details: Homo sapiens, NCI-H460
In short: (§1)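 CellTiter-Glo luminescence read in duplicate after 72 h compound exposure (37 °C, 5% CO2); DMSO-only control, final DMSO under 0.1%.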

MV4-11 = experiment: Cellular MV4-11 viability assay (CellTiter-Glo, 72 hours); type: cell-based; details: Homo sapiens
In short: as §1

CDK2/Cyclin A = target: T1, CDK2/Cyclin A (Homo sapiens, UniProt P24941); experiment: Enzymatic assay for CDK2 (FRET based LANCE Ultra kinase assay); type: biochemical; details: read-out: CDK2 enzymatic activity (IC50 range)
T1 construct: purchased Invitrogen PV6290
In short: (§2)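 Each CDK complex ([…]) phosphorylated 68 nM ULight-MBP peptide with ATP at Km for 60 min at 23° C., against 8 compound doses (4-fold dilutions). EDTA/Eu-anti-phospho-MBP detection, 60 min, then TR-FRET emission at 615 and 665 nm.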

MM.1S = experiment: Cellular MM.1S viability assay (CellTiter-Glo, 72 hours); type: cell-based; details: Homo sapiens, MM1.S
Excerpt: Human T-cell acute lymphoblastic leukemia cell line, MOLT-4 (ATCC, Cat #CRL-1582), Human multiple myeloma cell line, RPMI-8226 (Invitrogen, Cat #22400-089) and MM.1S (ATCC, Cat #CRL-2974), NSCLC (Non-small cell lung cancer) cell line H460 (ATCC, Cat #HTB-177), Human colon colorectal carcinoma cell line HCT116 (ATCC, Cat #CCL-247), Human acute monocytic leukemia cell line MV4-11 (ATCC, Cat #CRL-9591), OVCAR-3 (ATCC, Cat #HTB-161) and A2780 (ECACC, Cat #93112519) were obtained from ATCC. Cells were grown in RPMI-1640 media (Invitrogen, Cat #22400-089) supplemented with 10% FBS (Invitrogen, Cat #10099141) and 1% penicillin/streptomycin (Invitrogen, Cat #15070063) and cultured at 37° C., 5% CO2 in a humidified chamber. All cell lines were routinely tested for mycoplasma.
The effect of the CDK7 inhibitor to inhibit the growth of target cancer cells was evaluated through the 72 hours time period of viability assay. Briefly, the candidate cell line ware plated in 96 well plate at the following density of cells respectively. 1×10^4 cells/well for MOLT-4, RPMI-8226, MV4-11 and MM.1S, 5×10^3 for H460, HCT116 and OVCAR-3 and IX 10^3 for A2780. After 24 hours, the cells were treated with various concentrations of the compound (ranging from 0.0015 uM to 10 uM). DMSO solvent without compound served as a control and final DMSO concentration less than 0.1%. After 72 hours of incubation at 37° C., 5% CO2 incubator, cells were analyzed for the viability using the CellTiter-Glo Luminescent Cell Viability Assay (Promega, Cat #G7570). All viability assays were performed in duplicate and Luminescence was read using an Envision (Perkin Elmer, USA). Data was analyzed using XLfit software.

CDK1/Cyclin B = target: T2, CDK1/Cyclin B (Homo sapiens, UniProt P06493); experiment: Enzymatic assay for CDK1 (FRET based LANCE Ultra kinase assay); type: biochemical; details: read-out: CDK1 enzymatic activity (IC50 range)
T2 construct: purchased Invitrogen PR4768C
In short: as §2

CDK5/p25 = target: T3, CDK5/p25 (Homo sapiens, UniProt Q00535); experiment: Enzymatic assay for CDK5 (FRET based LANCE Ultra kinase assay); type: biochemical; details: read-out: CDK5 enzymatic activity (IC50 range)
T3 construct: purchased Invitrogen PR8543B
In short: as §2

HCT116 = experiment: Cellular HCT116 viability assay (CellTiter-Glo, 72 hours); type: cell-based; details: Homo sapiens, HCT-116
In short: as §1

CDK7/Cyclin H/MNAT1 = target: T4, CDK7/Cyclin H/MNAT1 (Homo sapiens, UniProt P50613); experiment: Enzymatic assay for CDK7 (FRET based LANCE Ultra kinase assay); type: biochemical; details: for IC50: read-out: CDK7 enzymatic activity (IC50 range)
T4 construct: purchased Invitrogen PR6749B
In short: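 Inhibition was measured at Km ATP by time-resolved FRET between a Eu anti-phospho antibody and a phosphorylated ULight peptide. The enzyme was the purified CDK7/cyclin complex, and data were curve-fitted.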

T3 sequence (Q00535 whole entry): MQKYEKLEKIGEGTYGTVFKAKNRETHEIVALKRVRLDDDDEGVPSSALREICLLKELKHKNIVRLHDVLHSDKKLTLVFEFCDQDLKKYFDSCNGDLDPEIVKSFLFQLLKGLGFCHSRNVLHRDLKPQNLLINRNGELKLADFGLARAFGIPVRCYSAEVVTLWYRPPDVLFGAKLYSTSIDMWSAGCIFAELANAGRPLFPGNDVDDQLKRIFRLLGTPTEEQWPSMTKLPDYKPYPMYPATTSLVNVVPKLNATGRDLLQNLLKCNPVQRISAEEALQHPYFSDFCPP
T3 sequence (Q15078 99-307 partner limits assumed): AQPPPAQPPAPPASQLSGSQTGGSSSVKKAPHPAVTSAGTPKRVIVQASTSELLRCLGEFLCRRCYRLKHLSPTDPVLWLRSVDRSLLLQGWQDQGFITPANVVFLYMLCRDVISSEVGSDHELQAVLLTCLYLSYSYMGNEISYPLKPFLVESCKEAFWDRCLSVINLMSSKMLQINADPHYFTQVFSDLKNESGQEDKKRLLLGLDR
T4 sequence (P50613 whole entry): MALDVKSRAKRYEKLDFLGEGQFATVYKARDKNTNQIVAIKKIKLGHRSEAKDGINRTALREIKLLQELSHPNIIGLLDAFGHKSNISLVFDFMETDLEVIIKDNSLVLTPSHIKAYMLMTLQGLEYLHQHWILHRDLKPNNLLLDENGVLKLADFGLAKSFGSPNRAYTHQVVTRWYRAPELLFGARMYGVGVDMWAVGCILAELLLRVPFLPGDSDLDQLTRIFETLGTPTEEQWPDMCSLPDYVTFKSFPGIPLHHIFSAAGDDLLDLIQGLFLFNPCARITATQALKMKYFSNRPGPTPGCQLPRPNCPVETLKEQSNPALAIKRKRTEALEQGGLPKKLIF
T4 sequence (P51946 whole entry partner): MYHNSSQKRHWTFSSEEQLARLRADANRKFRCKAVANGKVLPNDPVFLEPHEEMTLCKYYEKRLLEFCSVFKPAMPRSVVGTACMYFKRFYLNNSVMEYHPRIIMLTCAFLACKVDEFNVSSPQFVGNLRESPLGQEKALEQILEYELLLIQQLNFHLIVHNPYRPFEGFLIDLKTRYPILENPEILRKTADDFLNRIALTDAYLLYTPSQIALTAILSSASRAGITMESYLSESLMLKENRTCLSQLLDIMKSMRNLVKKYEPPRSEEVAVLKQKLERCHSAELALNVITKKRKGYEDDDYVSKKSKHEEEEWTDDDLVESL
T4 sequence (P51948 whole entry partner): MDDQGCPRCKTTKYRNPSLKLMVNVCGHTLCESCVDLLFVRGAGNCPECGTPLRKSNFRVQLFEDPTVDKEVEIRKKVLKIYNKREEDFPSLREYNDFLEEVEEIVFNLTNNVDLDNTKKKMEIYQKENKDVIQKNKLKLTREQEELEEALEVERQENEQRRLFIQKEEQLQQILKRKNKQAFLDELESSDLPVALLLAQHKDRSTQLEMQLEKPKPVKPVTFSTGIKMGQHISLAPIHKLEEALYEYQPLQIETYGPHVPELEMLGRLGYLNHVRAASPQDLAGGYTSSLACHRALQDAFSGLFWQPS
T2 sequence (P06493 whole entry): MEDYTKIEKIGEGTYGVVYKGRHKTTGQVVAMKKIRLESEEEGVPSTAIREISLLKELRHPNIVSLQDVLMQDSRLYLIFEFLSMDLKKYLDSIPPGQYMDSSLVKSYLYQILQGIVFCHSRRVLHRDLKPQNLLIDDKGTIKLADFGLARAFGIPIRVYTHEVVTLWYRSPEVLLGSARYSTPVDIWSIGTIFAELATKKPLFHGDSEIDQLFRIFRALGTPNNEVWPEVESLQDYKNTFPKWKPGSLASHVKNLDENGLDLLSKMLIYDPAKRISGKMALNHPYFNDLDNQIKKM
T2 sequence (P14635 whole entry partner): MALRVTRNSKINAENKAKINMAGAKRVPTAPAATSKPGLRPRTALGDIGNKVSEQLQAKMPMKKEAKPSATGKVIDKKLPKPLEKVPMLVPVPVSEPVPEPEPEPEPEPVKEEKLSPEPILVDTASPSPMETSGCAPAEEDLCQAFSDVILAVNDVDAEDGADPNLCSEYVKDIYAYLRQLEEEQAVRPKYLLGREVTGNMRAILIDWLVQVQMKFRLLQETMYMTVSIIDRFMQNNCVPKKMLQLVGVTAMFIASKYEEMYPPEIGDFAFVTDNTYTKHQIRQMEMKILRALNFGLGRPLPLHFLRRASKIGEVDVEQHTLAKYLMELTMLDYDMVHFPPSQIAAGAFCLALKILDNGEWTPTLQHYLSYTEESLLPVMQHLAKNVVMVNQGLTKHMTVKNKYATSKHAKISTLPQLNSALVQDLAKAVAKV

| SMILES | IC50 (H460) | IC50 (MV4-11) | IC50 (CDK2/Cyclin A) | IC50 (MM.1S) | IC50 (CDK1/Cyclin B) | IC50 (CDK5/p25) | IC50 (HCT116) | CDK1/CDK7: Selectivity of CDK7 inhibition over CDK1 inhibition (CDK7/Cyclin H/MNAT1) | CDK2/CDK7: Selectivity of CDK7 inhibition over CDK2 inhibition (CDK7/Cyclin H/MNAT1) | CDK5/CDK7: Selectivity of CDK7 inhibition over CDK5 inhibition (CDK7/Cyclin H/MNAT1) | IC50 (CDK7/Cyclin H/MNAT1) |
| --- | --- | --- | --- | --- | --- | --- | --- | --- | --- | --- | --- |
| CC(=O)NC1CCc2nn(-c3ccccc3CNc3nc(N4CCC(N)CC4)nc4c(C(C)C)cnn34)cc2C1 (stereo not shown) [Compound 150] | < 1 µM | < 1 µM | > 1 µM | ≤ 1 µM | > 1 µM | 0.1 to 1 µM | < 1 µM | A (A=greater than 200 fold) | A (A=greater than 200 fold) | B (B=less than 200 fold, but greater than 20 fold) | < 0.1 µM |
| CNC(=O)c1ccc2nc(-c3ccccc3CNc3nc(N4CCC(N)CC4)nc4c(C(C)C)cnn34)cnc2c1 [Compound 153] | < 1 µM | < 1 µM | > 1 µM | ≤ 1 µM | > 1 µM | 0.1 to 1 µM | < 1 µM | A (A=greater than 200 fold) | A (A=greater than 200 fold) | B (B=less than 200 fold, but greater than 20 fold) | < 0.1 µM |
| CC(C)c1cnn2c(NCc3ccccc3-n3cc(C(=O)N4CCN(C)CC4)cn3)nc(N3CCC(N)CC3)nc12 [Compound 154] | < 1 µM | < 1 µM | 0.1 to 1 µM | ≤ 1 µM | > 1 µM | < 0.1 µM | < 1 µM | A (A=greater than 200 fold) | A (A=greater than 200 fold) | B (B=less than 200 fold, but greater than 20 fold) | < 0.1 µM |
| CNC(=O)c1cc2cn(-c3ccccc3CNc3nc(N4CCC(N)CC4)nc4c(C(C)C)cnn34)nc2cc1C [Compound 160] | < 1 µM | < 1 µM | 0.1 to 1 µM | ≤ 1 µM | > 1 µM | 0.1 to 1 µM | < 1 µM | A (A=greater than 200 fold) | B (B=less than 200 fold, but greater than 20 fold) | B (B=less than 200 fold, but greater than 20 fold) | < 0.1 µM |
| CC(C)c1cnn2c(NCc3ccccc3-n3ccc(C(=O)NC4CCOCC4)n3)nc(N3CCC(N)CC3)nc12 [Compound 177] | < 1 µM | < 1 µM | 0.1 to 1 µM | ≤ 1 µM | 0.1 to 1 µM | < 0.1 µM | < 1 µM | A (A=greater than 200 fold) | B (B=less than 200 fold, but greater than 20 fold) | C (C=less than 20 fold) | < 0.1 µM |
| CC(C)c1cnn2c(NCc3ccccc3-n3cc(N4CCNCC4)cn3)nc(N3CCC(N)CC3)nc12 [Compound 180] | < 1 µM | < 1 µM | 0.1 to 1 µM | ≤ 1 µM | 0.1 to 1 µM | < 0.1 µM | < 1 µM | B (B=less than 200 fold, but greater than 20 fold) | B (B=less than 200 fold, but greater than 20 fold) | C (C=less than 20 fold) | < 0.1 µM |
| CC(C)c1cnn2c(NCc3ccccc3-n3ccc(CO)n3)nc(N3CCC(N)CC3)nc12 [Compound 181] | < 1 µM | < 1 µM | 0.1 to 1 µM | ≤ 1 µM | 0.1 to 1 µM | 0.1 to 1 µM | < 1 µM | B (B=less than 200 fold, but greater than 20 fold) | B (B=less than 200 fold, but greater than 20 fold) | B (B=less than 200 fold, but greater than 20 fold) | < 0.1 µM |
| Cc1cccc(-c2cc3ccccc3[nH]2)c1CNc1nc(N2CCC(N)CC2)nc2c(C(C)C)cnn12 [Compound 184] | < 1 µM | < 1 µM | > 1 µM | ≤ 1 µM | > 1 µM | 0.1 to 1 µM | < 1 µM | A (A=greater than 200 fold) | A (A=greater than 200 fold) | B (B=less than 200 fold, but greater than 20 fold) | < 0.1 µM |
| CC(C)c1cnn2c(NCc3c(O)cccc3-c3cc4ccccc4[nH]3)nc(N3CCC(N)CC3)nc12 [Compound 185] | 1 to 10 µM | 1 to 10 µM | > 1 µM | 1 to 10 µM | > 1 µM | > 1 µM | – | A (A=greater than 200 fold) | A (A=greater than 200 fold) | B (B=less than 200 fold, but greater than 20 fold) | < 0.1 µM |
| COc1cccc(-c2cc3ccccc3[nH]2)c1CNc1nc(N2CCC(N)CC2)nc2c(C(C)C)cnn12 [Compound 186] | 1 to 10 µM | 1 to 10 µM | > 1 µM | 1 to 10 µM | > 1 µM | > 1 µM | – | A (A=greater than 200 fold) | A (A=greater than 200 fold) | B (B=less than 200 fold, but greater than 20 fold) | < 0.1 µM |
| CC(C)c1cnn2c(N[C@@H](C)c3ccccc3-c3cc4ccccc4[nH]3)nc(N3CCC(N)CC3)nc12 [Compound 187] | 1 to 10 µM | 1 to 10 µM | > 1 µM | 1 to 10 µM | > 1 µM | > 1 µM | – | A (A=greater than 200 fold) | A (A=greater than 200 fold) | A (A=greater than 200 fold) | < 0.1 µM |
| CC(C)c1cnn2c(N[C@H](C)c3ccccc3-c3cc4ccccc4[nH]3)nc(N3CCC(N)CC3)nc12 [Compound 188] | 1 to 10 µM | 1 to 10 µM | > 1 µM | 1 to 10 µM | > 1 µM | > 1 µM | – | B (B=less than 200 fold, but greater than 20 fold) | C (C=less than 20 fold) | C (C=less than 20 fold) | 0.1 to 1 µM |
| CC(C)c1cnn2c(NCc3c(Cl)cccc3-n3cc4c(n3)CCNC4=O)nc(N3CCC(N)CC3)nc12 [Compound 189] | < 1 µM | < 1 µM | > 1 µM | ≤ 1 µM | > 1 µM | 0.1 to 1 µM | < 1 µM | A (A=greater than 200 fold) | A (A=greater than 200 fold) | B (B=less than 200 fold, but greater than 20 fold) | < 0.1 µM |
